Read-outs that look alike come from different tables or passages of the source.
Tests used:
[1] = tested on: Balamuthia mandrillaris trophozoites; test: Activity against Balamuthia mandrillaris trophozoites; format: cell-based; conditions: Balamuthia mandrillaris, read-out: Balamuthia mandrillaris IC50
Protocol: Balamuthia mandrillaris trophozoites were thawed and grown in 10 ml of BM-3 medium. […] After autoclaving, complete BM-3 media was produced by the addition of 10% fetal bovine serum and 125 μg of penicillin/streptomycin antibiotics. The table describes all of the compounds and the activity against Balamuthia trophozoites compared to the activity for select Acanthamoeba trophozoites shown in Table 5.

[2] = tested on: Acanthamoeba castellanii trophozoites; test: Activity against Acanthamoeba castellanii trophozoites; format: cell-based
Protocol: Two Acanthamoeba species (Acanthamoeba castellanii—ATCC50370 and Acanthamoeba culbertsoni—ATCC30171) were bought from the American Type Culture Collection (ATCC) and one species (Acanthamoeba healyi) was donated from the Centers for Disease Control and Prevention (CDC) for our experimentations. Trophozoites were thawed and grown in 10 mL of a nutrient rich Peptose-Glucose (PG) media. The PG media composition is 83.26 mM Glucose (15 g/L), Protease Peptone (15 g/L, yeast extract is manufactured under controlled conditions to retain its vitamin content and other nutritive values such as free amino acids, no other composition information given), 2.2 mM KH2PO4 (300 mg/L), 2.97 μM Thiamine (1 mg/L), 99.86 μM L-methionine (14.9 mg/L), 4.6 μM Vitamin B12 (83.3 μl of 0.1 mg/mL stock/L) and 68 μM Biotin (83.3 μl of 0.2 mg/mL stock/L). […] One mL/L of the salt solution was added to the media stock prior to autoclaving. All reagents were purchased from Sigma Aldrich except the Glucose which was purchased from Alfa Aesar. The cell pellet was resuspended in a final volume of 10 mL of PG media, cultured in 75 cm^2 coming tissue culture flasks and incubated at 27° C. PG was supplemented with 125 μg of penicillin/streptomycin. Sub-culturing occurred twice per week to allow the continued growth and development of the Acanthamoeba trophozoites. […]

[3] = read-out: Acanthamoeba castellanii IC50
[4] = trophozoites, n = 2, Table 6, read-out: Acanthamoeba castellanii IC50

Row | SMILES | IC50 [1] [nM] | IC50 [2, 3] [nM] | IC50 ([1]; trophozoites, n = 2) [nM] | IC50 [2, 4] [nM]
1 | COc1cc(Oc2ccc(-c3nc4ccc(C(=N)NC(C)C)cc4[nH]3)cc2)ccc1-c1nc2ccc(C(=N)NC(C)C)cc2[nH]1 [AI] | 70 | 2920 | – | –
2 | Oc1cccc(-c2nc3ccc(-c4nc5ccc(C6=NCCCCN6)cc5[nH]4)cc3[nH]2)c1 [AO, 3-(6-(4,5,6,7-tetrahydro-1H-1,3-diazepin-2-yl)-1H,3′H-[2,5′-bibenzo[d]imidazol]-2′-yl)phenol] | – | – | 250 | 2960
3 | CN(C)CCOc1cccc(-c2nc3ccc(-c4nc5ccc(C(=N)N)cc5[nH]4)cc3[nH]2)c1 [AQ, 2′-(3-(2-(dimethylamino)ethoxy)phenyl)-1H,3′H-[2,5-bibenzo[d]imidazole]-6-carboximidamide] | 420 | 13200 | – | –
4 | N=C(C1=NCCCN1)c1ccc2nc(-c3ccc4nc(-c5ccccc5)[nH]c4c3)[nH]c2c1 [AL, (2′-phenyl-1H,3′H-[2,5′-bibenzo[d]imidazol]-6-yl)(1,4,5,6-tetrahydropyrimidin-2-yl)methanimine] | – | – | 280 | 2330
5 | CC(C)NC(=N)c1ccc2nc(-c3ccc(Oc4ccc(-c5nc6ccc(C(=N)NC(C)C)cc6[nH]5)cc4I)cc3)[nH]c2c1 [AE, 2-(3-Iodo-4-(4-(6-(N-isopropylcarbamimidoyl)-1H-benzo[d]imidazol-2-yl)phenoxy)phenyl)-N-isopropyl-1H-benzo[d]imidazole-6-carboximidamide] | – | – | 380 | 1090
6 | N=C(c1ccc2nc(-c3ccc(Oc4ccc(-c5nc6ccc(C(=N)N7CCOCC7)cc6[nH]5)cc4)cc3)[nH]c2c1)N1CCOCC1 [BE] | – | – | 380 | 4910
7 | N=C(N)c1ccc2nc(-c3ccc4nc(-c5ccc(C(N)=O)cc5)[nH]c4c3)[nH]c2c1 [AP, 4-(6-carbamimidoyl-1H,3′H-[2,5′-bibenzo[d]imidazol]-2′-yl)benzamide] | 400 | 47600 | – | –
8 | CC(C)NC(=N)c1ccc2nc(-c3ccc(CCc4ccc(-c5nc6ccc(C(=N)NC(C)C)cc6[nH]5)cc4)cc3)[nH]c2c1 [BC] | – | – | 250 | > 67800
9 | CC(C)NC(=N)c1ccc2nc(-c3ccc(Oc4ccc(-c5nc6ccc(C(=N)NC(C)C)cc6[nH]5)c(Cl)c4)c(C#N)c3)[nH]c2c1 [AA, 2-(2-Chloro-4-(2-cyano-4-(6-(N-isopropylcarbamimidoyl)-1H-benzo[d]imidazol-2-yl)phenoxy)phenyl)-N-isopropyl-1H-benzo[d]imidazole-6-carboximidamide] | – | – | 60 | 730
10 | N=C(c1ccc2nc(-c3ccc(Oc4ccc(-c5nc6ccc(C(=N)N7CCCCCC7)cc6[nH]5)cc4)cc3)[nH]c2c1)N1CCCCCC1 [BD] | – | – | 350 | 5710
11 | CC(C)NC(=N)c1ccc2nc(-c3ccc(Oc4ccc(-c5nc6ccc(C(=N)NC(C)C)cc6[nH]5)c(Cl)c4)c(Cl)c3)[nH]c2c1 [AD, 2-(2-Chloro-4-(2-chloro-4-(6-(N-isopropylcarbamimidoyl)-1H-benzo[d]imidazol-2-yl)phenoxy)phenyl)-N-isopropyl-1H-benzo[d]imidazole-6-carboximidamide] | – | – | 130 | 830
12 | CC(C)NC(=N)c1ccc2nc(-c3ccc(Oc4c(F)cc(-c5nc6ccc(C(=N)NC(C)C)cc6[nH]5)cc4F)c(F)c3)[nH]c2c1 [AC, 2-(3,5-Difluoro-4-(2-fluoro-4-(6-(N-isopropylcarbamimidoyl)-1H-benzo[d]imidazol-2-yl)phenoxy)phenyl)-N-isopropyl-1H-benzo[d]imidazole-6-carboximidamide] | – | – | 390 | 1030
13 | CC(C)NC(=N)c1ccc2nc(-c3ccc(N(C)c4ccc(-c5nc6ccc(C(=N)NC(C)C)cc6[nH]5)cc4)cc3)[nH]c2c1 [BA] | – | – | 50 | 1700
14 | COc1ccc(-c2nc3ccc(-c4nc5ccc(C6=NCCCCN6)cc5[nH]4)cc3[nH]2)cc1O [AM, 2-methoxy-5-(6-(4,5,6,7-tetrahydro-1H-1,3-diazepin-2-yl)-1H,3′H-[2,5′-bibenzo[d]imidazol]-2′-yl)phenol] | – | – | 130 | 1930

The next lines start with the values.

Row | IC50 [1] [nM] | IC50 [2, 3] [nM] | IC50 ([1]; trophozoites, n = 2) [nM] | IC50 [2, 4] [nM] | SMILES
15 | 350 | 6050 | – | – | N=C(N)c1ccc(-c2ccc(-c3nc4ccc(C(=N)N)cc4[nH]3)cc2)cc1 [Compound AX]
16 | 350 | 13700 | – | – | N=C(N)c1ccc(-c2ccc(-c3cc4cc(C(=N)N)ccc4[nH]3)cc2)cc1 [Compound AW]
17 | – | – | 100 | 620 | CC(C)NC(=N)c1ccc2nc(-c3ccc(Oc4ccc(-c5nc6ccc(C(=N)NC(C)C)cc6[nH]5)cc4C#N)c(F)c3)[nH]c2c1 [X, 2-(3-Cyano-4-(2-fluoro-4-(6-(N-isopropylcarbamimidoyl)-1H-benzo[d]imidazol-2-yl)phenoxy)phenyl)-N-isopropyl-1H-benzo[d]imidazole-6-carboximidamide]
18 | – | – | 150 | 1440 | COc1cc(-c2nc3ccc(C(=N)NC(C)C)cc3[nH]2)ccc1Oc1ccc(-c2nc3ccc(C(=N)NC(C)C)cc3[nH]2)cc1C#N [Compound U, 2-(3-Cyano-4-(4-(6-(N-isopropylcarbamimidoyl)-1H-benzo[d]imidazol-2-yl)-2-methoxyphenoxy)phenyl)-N-isopropyl-1H-benzo[d]imidazole-6-carboximidamide]
19 | – | – | 80 | 28800 | CN(C)CCNC(=O)c1ccc(-c2nc3ccc(-c4nc5ccc(C(=N)N)cc5[nH]4)cc3[nH]2)cc1 [Compound AK, 4-(6-carbamimidoyl-1H,3′H-[2,5′-bibenzo[d]imidazol]-2′-yl)-N-(2-(dimethylamino)ethyl)benzamide]
20 | 90 | 1890 | – | – | CC(C)NC(=N)c1ccc2nc(-c3ccc(Oc4ccc(-c5nc6ccc(C(=N)NC(C)C)cc6[nH]5)c(C(F)(F)F)c4)cc3)[nH]c2c1 [Compound AH]
21 | – | – | 400 | 1250 | N=C(NC1CCC1)c1ccc2nc(-c3ccc4nc(-c5cccc(O)c5)[nH]c4c3)[nH]c2c1 [Compound AT]
22 | – | – | 290 | 33300 | CC(C)NC(=N)c1ccc2nc(-c3ccc(Oc4c(F)cc(-c5nc6ccc(C(=N)NC(C)C)cc6[nH]5)cc4F)cc3)[nH]c2c1 [W, 2-(3,5-Difluoro-4-(4-(6-(N-isopropylcarbamimidoyl)-1H-benzo[d]imidazol-2-yl)phenoxy)phenyl)-N-isopropyl-1H-benzo[d]imidazole-6-carboximidamide]
23 | – | – | 40 | 5990 | CC(C)NC(=N)c1ccc2nc(-c3ccc(Nc4ccc(-c5nc6ccc(C(=N)NC(C)C)cc6[nH]5)cc4)cc3)[nH]c2c1 [Compound AY]
24 | 50 | 460 | – | – | CC(C)NC(=N)c1ccc2nc(-c3ccc(Oc4ccc(-c5nc6ccc(C(=N)NC(C)C)cc6[nH]5)cc4Cl)cc3)[nH]c2c1 [Compound AJ]
25 | – | – | 70 | 1030 | CC(C)NC(=N)c1ccc2nc(-c3ccc(Oc4ccc(-c5nc6ccc(C(=N)NC(C)C)cc6[nH]5)cc4C#N)cc3)[nH]c2c1 [V, 2-(3-Cyano-4-(4-(6-(N-isopropylcarbamimidoyl)-1H-benzo[d]imidazol-2-yl)phenoxy)phenyl)-N-isopropyl-1H-benzo[d]imidazole-6-carboximidamide]
26 | – | – | 360 | 2440 | N=C(N)c1ccc(OCc2ccc(-c3ccc(C(=N)N)cc3)cc2)cc1 [Compound AU]
27 | – | – | 500 | 17600 | N=C(c1ccc2nc(-c3ccc(Oc4ccc(-c5nc6ccc(C(=N)N7CCSCC7)cc6[nH]5)cc4)cc3)[nH]c2c1)N1CCSCC1 [Compound BH]
28 | – | – | 280 | 2400 | COc1ccc(-c2nc3ccc(-c4nc5ccc(C(=N)NC6CCC6)cc5[nH]4)cc3[nH]2)cc1O [Compound AS]
29 | – | – | 470 | 3100 | CC(C)NC(=N)c1ccc2nc(-c3ccc(N(c4ccccc4)c4ccc(-c5nc6ccc(C(=N)NC(C)C)cc6[nH]5)cc4)cc3)[nH]c2c1 [BG]
30 | – | – | 260 | 1440 | COc1cc(-c2nc3ccc(C(=N)NC(C)C)cc3[nH]2)ccc1Oc1c(F)cc(-c2nc3ccc(C(=N)NC(C)C)cc3[nH]2)cc1F [Compound AB, 2-(3,5-Difluoro-4-(4-(6-(N-isopropylcarbamimidoyl)-1H-benzo[d]imidazol-2-yl)-2-methoxyphenoxy)phenyl)-N-isopropyl-1H-benzo[d]imidazole-6-carboximidamide]
31 | – | – | 410 | 3870 | CC1CCN(C(=N)c2ccc3nc(-c4ccc(Oc5ccc(-c6nc7ccc(C(=N)N8CCC(C)CC8)cc7[nH]6)cc5)cc4)[nH]c3c2)CC1 [BF]
32 | – | – | 40 | 550 | CC(C)NC(=N)c1ccc2nc(-c3ccc(Oc4ccc(-c5nc6ccc(C(=N)NC(C)C)cc6[nH]5)cc4)cc3)[nH]c2c1 [Compound AZ]
33 | – | – | 280 | 1870 | COc1cc(Oc2ccc(-c3nc4ccc(C(=N)NC(C)C)cc4[nH]3)cc2C#N)ccc1-c1nc2ccc(C(=N)NC(C)C)cc2[nH]1 [Z, 2-(3-Cyano-4-(4-(6-(N-isopropylcarbamimidoyl)-1H-benzo[d]imidazol-2-yl)-3-methoxyphenoxy)phenyl)-N-isopropyl-1H-benzo[d]imidazole-6-carboximidamide]
